Measured values as given in patent US9642780B2, “Detection and removal of carious dentin tissue” (RLS Global AB, priority 2011, dated 2017).
“Also recorded” adds a separate entry of the source. Values belong to the compound of their own block, whether it stands above or below them.

Key:
[1] = system: carious dentin tissue of a pre molar tooth; experiment: Staining of a pre molar tooth with Alexa 594 and removal with a dentist's drill; conditions: 15-50 mM aqueous solution, drilling and staining repeated several times
Description: Carious dentin tissue of a pre molar tooth stained with an aqueous solution of the hydrazine derivative Alexa 594 in a concentration of 15-50 mM was subjected to mechanical treatment by a dentist's drill until no staining could be visually detected. […] The stained surface was subjected to drilling until no staining could be visually detected. A dentist examined the surface visually and with a tactile instrument and concluded that the surface was free of caries. […] Again, drilling of the stained surface took place until no staining could be observed. […] Drilling and staining as described above in this example was repeated several times. […] It was concluded that selective detection and removal of carious dentin tissue using a hydrazine derivative in combination with a dentist's drill was not possible. […] This is in contrast to the successful selective detection and removal of carious dentin tissue using a hydrazine derivative in combination with a chemical means for treatment of carious dentin tissue as described in Example 5.

[2] = system: carious tissue in caries infected tooth slices; experiment: Staining of caries infected tooth slices with colours, then washing with MQ water, NaCl and NaOH; conditions: for staining of the tooth slice after NaCl and NaOH (Day 4): after NaCl 1 M and NaOH 0.5 M over night, visible light, UV or fluorescence microscopy; for kind of binding to carious tissue in infected teeth (conclusion): concluded from staining after NaCl and NaOH washes
Description: This experiment aimed to see if the added colours SEEK, Acid red 1, Lucifer Yellow, a combination of Lucifer Yellow and Acid red 1, or 5-(2-2-hydrazinyl-2-oxoethylthio)acetamido)-2-(3-hydroxy-6-oxo-6H-xanthen-9-yl)benzoic acid, Alexa Fluor® 594 and Alexa 350 bind to the surface of caries or not, after excavation down to a clinically caries free denoted surface. Experiments were performed during 4 days.
Whole caries infected tooth was added to an ortho acryl gel, which after hardening was used as a holder prior to sawing (saw of brand Zaw Micro Tone, German). Slices, having a thickness of 150 μm, were left over night in each colour to be tested (Day one). On the second day, the colours were washed out by rinsing the slices with MQ water and the teeth sections were photographed under either a microscope (6.7×; visible light), in UV (no microscope) or under a fluorescence microscope (100×). Thereafter, an aqueous salt solution (NaCl, 1 M) was added to the slices and incubated over night. On the third day the slices were washed with MQ water and thereafter the same detection procedures were used as described above. Finally the tooth slices were exposed to an aqueous solution of NaOH (0.5 M) over night. The washing and detection path were then repeated as described previously (Day 4).

[3] = system: carious dentin tissue of a pre molar tooth; experiment: Staining of a pre molar tooth cavity with Alexa 594 and removal with Carisolv and hand instrument
Description: Carious dentin tissue of a pre molar tooth was treated with Carisolv® to obtain a cavity and subsequently stained with an aqueous solution of the hydrazine derivative Alexa 594.
The concentration of the aqueous solution of the hydrazine derivative Alexa 594 was 15-50 mM. […] Carisolv® was added to the cavity and excavation took place with a hand instrument from Mediteam Dental AB to reach a carious free level. […] A dentist performed tactile control of this surface and confirmed that the surface was free of caries. […] The slightly stained surface was subjected to treatment with Carisolv® followed by excavation with a hand instrument. […] It was concluded that a hydrazine derivative such as Alexa 594 can be used in combination with a chemical means for carious dentin tissue such as Carisolv® for selective detection and removal of carious dentin tissue.

[4] = system: carious dentin tissue; experiment: Rinsing of carious dentin tissue labelled with a dye
[5] = system: carious dentin tissue; experiment: TOF-SIMS of carious dentin tissue treated with Lucifer Yellow
Description: FTIR-ATR and TOF-SIMS analyses were performed on a sample group consisting of carious tissue inner most layers selected and estimated with an exactness of a working dentist. Samples were pooled from 4-6 teeth of inner layer of carious tissue (37 mg). The pooled sample was divided into two subgroups where one was exposed to the hydrazine derivate Lucifer Yellow and further analysed with TOF-SIMS and the other only analysed with FTIR-ATR. An aqueous solution of the hydrazine derivate Lucifer Yellow (1.8 mM) was added to the inner layer carious tissue (19 mg) and after 1 hour exposure washed with an aqueous solution of NaOH (0.5 M) and purified water before dried over vacuum. Events prolonged under a couple of hours from extraction to excavation to the drying and milling of the substances. Both FTIR-ATR and TOF-SIMS followed. FTIR-ATR was performed as described in Example 3 above. […] Each sample was attached to double side tape and analysed with a TOF-SIMS instrument (TOF-SIMS IV, CAMECA/IONTOF, GmbH, Germany). Positive secondary ion mass spectra were recorded from different areas of the sample at a size of […] and separated in a mass analyser and next compared with known mass spectra from the Ion Spec application (IonTof, GmbH, Germany, ver. 4.1) linked with the TOF-SIMS instrument. Negative secondary ion mass spectra were also recorded but gave no further information. […]

[6] = system: healthy dentin tissue; experiment: FTIR of healthy dentin tissue treated with Lucifer Yellow; set-up: species or system human; conditions: Lucifer Yellow 13 mM aqueous, overnight, no peak at 1740 cm−1 in any sample
Excerpt: (§1) Extracted permanent human teeth with no previous dental restorations were selected due to their severe carious tissue status and analysed with FTIR within one week after extraction. The outermost part of the carious dental lesions was removed. The remaining dental carious tissue was divided into two layers; one outer layer with discoloured, soft and infected dental carious tissue and one inner layer that was excavated down to the observed uncoloured hard surface of the remaining healthy dentin controlled by tactile procedures.
(§2) Healthy dentin tissue and carious dentin tissue from the innermost layer were collected. This healthy dentin tissue sample and carious dentin tissue sample were then each divided into three samples.
(§3) The healthy dentin tissue sample (26 mg) was divided and treated as follows. […] Fluorescence of bounded hydrazine derivate Lucifer Yellow was checked by a UV lamp. […] The third sample, hereinafter denominated sample S3, (7 mg) and the last procedure was treated with NaBH4 (0.5 M in ethanol) and washed with concentrated ethanol to reduce aldehydes and ketones before the addition of an aqueous solution of the hydrazine derivate Lucifer Yellow (13 mM), repeated rinsing with purified water before dried and analysed.
(§4) Thus, in total 6 samples (three from the healthy dentin tissue and three from the carious dentin tissue) were analysed with FTIR within one week after extraction. […]

[7] = system: healthy dentin tissue; experiment: TOF-SIMS of healthy dentin tissue treated with Lucifer Yellow; conditions: positive mass spectra, treated similar to untreated
[8] = system: carious dentin tissue; experiment: FTIR of carious dentin tissue treated with Lucifer Yellow; set-up: species or system human
Excerpt: as §1, §2
as §3, with “analysed. […]” for “analysed.”
as §4

Compound: 6-(2-carboxy-5-(hydrazinecarbonyl)phenyl)-1,2,2,10,10,11-hexamethyl-2,10-dihydro-1H-pyrano[3,2-g]diquinoline-11-ium-4,8-diyl)methanesulfonate [Alexa Fluor® 594]
staining of the surface after drilling until no staining visible [1]: staining always took place after the drilling had been performed | staining of the tooth slice after NaCl and NaOH (Day 4) [2]: still contained colourants | staining of the tooth slice after NaCl and NaOH (Day 4) ([2]; listed as Alexa Fluor 594®): staining | kind of binding to carious tissue in infected teeth (conclusion) [2]: bind irreversibly | sensitivity of caries detection compared with tactile control by a dentist [3]: better and more sensitive method for detecting carious dentin tissue than tactile control | staining of the cavity, first staining ([3]; 15-50 mM aqueous solution, cavity obtained with Carisolv): intense dark bluish colour | staining of the surface after second Carisolv treatment and excavation ([3]; final attempt to stain): no staining took place | staining of the surface after first Carisolv treatment and excavation ([3]; surface judged free of caries by dentist's tactile control): very slight staining at the center of the cavity

Compound: NNC(=O)NN1C(=O)c2cc(S(=O)(=O)O)cc3c(N)c(S(=O)(=O)O)cc(c23)C1=O [Lucifer Yellow]
bonding to carious dentin tissue (TOF-SIMS) ([5]; Lucifer Yellow 1.8 mM, 1 hour, washed with NaOH 0.5 M, positive spectra, repeated difference of 106 mass units): covalently bound to the carious tissue | selectivity of reaction, carious versus healthy dentin tissue (TOF-SIMS) ([5]; concluded from TOF-SIMS spectra): selectively reacts with carious dentin tissue | reaction with healthy dentin tissue [6]: no reaction takes place | staining of the tooth slice after NaCl and NaOH (Day 4) [2]: still contained colourants | kind of binding to carious tissue in infected teeth (conclusion) [2]: bind irreversibly | reaction with healthy dentin (TOF-SIMS) [7]: did not react with healthy dentin | reaction with carious dentin tissue ([8]; FTIR, Lucifer Yellow 13 mM aqueous, overnight, peak at 1740 cm−1 no longer present): reaction has taken place | selectivity of reaction, carious versus healthy dentin tissue (FTIR) ([8]; concluded from FTIR of samples S1-S6): selectively reacts with carious dentin tissue

Further lines, with some results ahead:

kind of binding to carious tissue in infected teeth (conclusion) [2]: bind irreversibly
Compound: NNC(=O)CSCC(=O)Nc1ccc(-c2c3ccc(=O)cc-3oc3cc(O)ccc23)c(C(=O)O)c1 [5-(2-2-hydrazinyl-2-oxoethylthio)acetamido)-2-(3-hydroxy-6-oxo-6H-xanthen-9-yl)benzoic acid]
staining of the tooth slice after NaCl and NaOH (Day 4) [2]: still contained colourants; also recorded: staining

kind of binding to carious tissue in infected teeth (conclusion) [2]: binds in a reversible way
Compound: CC(=O)Nc1cc(S(=O)(=O)[O-])cc2cc(S(=O)(=O)[O-])c(/N=N/c3ccccc3)c(O)c12.[Na+].[Na+] [Acid red 1, reference compound]
effect of rinsing on dye bonded to carious dentin tissue [4]: release of the dye bonded to the carious dentine tissue | staining of the tooth slice after incubation with 1 M NaCl ([2]; 150 μm slices left over night in colour, rinsed with MQ water, NaCl 1 M over night): only little staining remained | staining of the tooth slice after NaCl and NaOH (Day 4) [2]: no colouring of the slice treated with Acid red 1 could be detected using visible light and barely with microscope

kind of binding to carious tissue in infected teeth (conclusion) [2]: bind irreversibly
Compound: Cc1c(CC(=O)NN)c(=O)oc2cc(N)c(S(=O)(=O)O)cc12 [Alexa 350]
staining of the tooth slice after NaCl and NaOH (Day 4) [2]: still contained colourants
